Results as given in PubChem BioAssay AID1919010 (Molecular Pharmacology Branch, DTP, NCI, 2023).

Test system: Hs578T complex spheroid growth, percent test/control
Test: Anticancer human tumor Hs578T cell line growth inhibition [AhR];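 further: luminescent viability signal as a proxy for spheroid growth; spheroids exposed to agents for one week after three days of growth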
Conditions: for IC50: curve of first compound; for viability, T/C: stronger effect = lower value
Description: Multicellular complex tumor spheroid response to aryl hydrocarbon receptor antagonists in combination with a variety of drugs and investigational agents in selected tumor cell lines
The current study was undertaken to assess response to aryl hydrocarbon receptor antagonists in combination with standard-of-care drugs and investigational agents in solid tumor complex spheroid models. Complex spheroids include a stromal component modeled by human endothelial cells (HUVEC) and fibroblasts modeled by human mesenchymal stem cells (MSCs). The concentration ranges selected for each drug and investigational agent were based upon clinically achievable concentrations if the clinical Cmax of the agent was known.
Compounds. The drugs and investigational agents: BAY 2416964 (NSC825713), GNF351 (NSC835774), CH-223191 (NSC835775), CPI-455 (NSC825282), aza-TdCyd (NSC777586), decitabine (NSC127716), belinostat (NSC758774), entinostat (NSC756642), pevonedistat (NSC761192), tazemetostat (NSC777109), talazoparib (NSC765396), olaparib (NSC753686), selinexor (NSC780203), nedisertib (M3814, NSC802822), bortezomib (NSC756655), venetoclax (NSC766270), doxorubicin (NSC123127), elimusertib (BAY189344, NSC800525), ceralasertib (AZD6738, NSC777638), TAK-243 (NSC785004), alisertib (NSC759677), etoposide (NSC141540), topotecan (NSC609699), eribulin (NSC707389), gemcitabine (NSC613327), carboplatin (NSC241240), cisplatin (NSC119875), and SN-38 (NSC673596) were obtained from the National Cancer Institute (NCI) Developmental Therapeutics Program Chemical Repository (32). The FDA-approved anticancer drug set is available from the Developmental Therapeutics Program at https://dtp.cancer.gov/organization/dscb/obtaining/available plates.htm. […] The stock solutions were prepared in dimethyl sulfoxide (DMSO, Sigma-Aldrich, St. Louis, MO, cat. D2650), except for the platinum compounds which were prepared in saline (Quality Biological, Gaithersburg, MD, cat. 114-055-101), at 800-fold the tested concentration and stored at -70 degrees C prior to their use. All drugs and investigational agents were tested over a range starting from a high concentration at or near the clinical Cmax and decreasing in half-log increments. If the clinical Cmax for an agent had not been determined, the highest concentration tested was 10 microM (Table 1).
Cell Culture. All cells were maintained in an incubator at 37 degrees C and 5% CO2 with 95% humidity. The PDC lines were cultured according to standard operating procedures established by the NCI PDMR (https://pdmr.cancer.gov). Briefly, all PDCs were thawed and cultured in Matrigel-coated flasks prepared with a working solution of 1X Ham's F-12 nutrient mix, without supplementation (Invitrogen, Waltham, MA, cat. 11765054), 100 U/mL penicillin-streptomycin (Invitrogen, cat. 15140122), and 2.5% Matrigel (Corning Inc., Corning, NY, cat. 354248) for the first three passages. All PDCs were cultured in complete DMEM/F-12 media containing advanced DMEM/F-12 (Invitrogen, cat. 12634028), 4.9% defined fetal bovine serum, heat inactivated (HyClone Laboratories Inc., Logan, UT, cat. SH30070.03HI), 389 ng/mL hydrocortisone (Sigma-Aldrich, cat. H4001), 9.7 ng/mL human EGF recombinant protein (Invitrogen, cat. PHG0313), 23.4 microg/mL adenine (Sigma-Aldrich, cat. A2786), 97.3 U/mL penicillin-streptomycin (Invitrogen, cat. 15140122), 1.9 mM L-glutamine (Invitrogen, cat. 25030081), and 9.7 microM Y-27632 dihydrochloride (Tocris Bioscience, Bristol, United Kingdom, cat. 1254). The PDCs were cultured in complete DMEM/F12 media without 10 microM Y-27632 dihydrochloride for at least two passages prior to the screen. The established cell lines NCI-H1341 and […] were cultured in DMEM/F-12, HEPES (Invitrogen, cat. 11330032), 5% defined fetal bovine serum (HyClone Laboratories Inc., cat. SH30070.03), ITS premix universal culture supplement [insulin (5 microg/mL), transferrin (5 microg/mL), and selenious acid (5 ng/mL)] […]

Compound: CCc1c2c(nc3ccc(O)cc13)-c1cc3c(c(=O)n1C2)COC(=O)[C@]3(O)CC + CC(CO)NC(=O)c1cc(-c2ccc(Cl)cc2)nn(-c2cnn(C)c2)c1=O
- IC50 (second compound 0.1 µM): 207 nM
- IC50 (second compound 0.316 µM): 158 nM
- IC50 (second compound 1 µM): 182 nM
- IC50 (second compound 3.16 µM): 193 nM
- IC50 (second compound 10 µM): 194 nM
- viability, T/C (second compound 0.1 µM, first compound 0.000949 µM): 87.1%
- viability, T/C (second compound 0.1 µM, first compound 0.003 µM): 86.2%
- viability, T/C (second compound 0.1 µM, first compound 0.00949 µM): 78.3%
- viability, T/C (second compound 0.1 µM, first compound 0.03 µM): 76.7%
- viability, T/C (second compound 0.1 µM, first compound 0.0949 µM): 65%
- viability, T/C (second compound 0.1 µM, first compound 0.3 µM): 42.7%
- viability, T/C (second compound 0.316 µM, first compound 0.000949 µM): 79.3%
- viability, T/C (second compound 0.316 µM, first compound 0.003 µM): 88%
- viability, T/C (second compound 0.316 µM, first compound 0.00949 µM): 82.3%
- viability, T/C (second compound 0.316 µM, first compound 0.03 µM): 66.3%
- viability, T/C (second compound 0.316 µM, first compound 0.0949 µM): 58.2%
- viability, T/C (second compound 0.316 µM, first compound 0.3 µM): 42%
- viability, T/C (second compound 1 µM, first compound 0.000949 µM): 81.6%
- viability, T/C (second compound 1 µM, first compound 0.003 µM): 85%
- viability, T/C (second compound 1 µM, first compound 0.00949 µM): 86.2%
- viability, T/C (second compound 1 µM, first compound 0.03 µM): 72.5%
- viability, T/C (second compound 1 µM, first compound 0.0949 µM): 59.1%
- viability, T/C (second compound 1 µM, first compound 0.3 µM): 43.5%
- viability, T/C (second compound 3.16 µM, first compound 0.000949 µM): 89.3%
- viability, T/C (second compound 3.16 µM, first compound 0.003 µM): 94.5%
- viability, T/C (second compound 3.16 µM, first compound 0.00949 µM): 89.9%
- viability, T/C (second compound 3.16 µM, first compound 0.03 µM): 74.9%
- viability, T/C (second compound 3.16 µM, first compound 0.0949 µM): 57.5%
- viability, T/C (second compound 3.16 µM, first compound 0.3 µM): 45.5%
- viability, T/C (second compound 10 µM, first compound 0.000949 µM): 82.5%
- viability, T/C (second compound 10 µM, first compound 0.003 µM): 82.7%
- viability, T/C (second compound 10 µM, first compound 0.00949 µM): 78.1%
- viability, T/C (second compound 10 µM, first compound 0.03 µM): 73.3%
- viability, T/C (second compound 10 µM, first compound 0.0949 µM): 64.8%
- viability, T/C (second compound 10 µM, first compound 0.3 µM): 41.2%

Compound: O=C(c1cc(Cc2n[nH]c(=O)c3ccccc23)ccc1F)N1CCN(C(=O)C2CC2)CC1 + CC(CO)NC(=O)c1cc(-c2ccc(Cl)cc2)nn(-c2cnn(C)c2)c1=O
- IC50 (second compound 0.1 µM): > 10000 nM
- IC50 (second compound 0.316 µM): > 10000 nM
- IC50 (second compound 1 µM): > 10000 nM
- IC50 (second compound 3.16 µM): > 10000 nM
- IC50 (second compound 10 µM): > 10000 nM
- viability, T/C (second compound 0.1 µM, first compound 0.0316 µM): 113%
- viability, T/C (second compound 0.1 µM, first compound 0.1 µM): 112%
- viability, T/C (second compound 0.1 µM, first compound 0.316 µM): 109%
- viability, T/C (second compound 0.1 µM, first compound 1 µM): 104%
- viability, T/C (second compound 0.1 µM, first compound 3.16 µM): 96.3%
- viability, T/C (second compound 0.1 µM, first compound 10 µM): 93.5%
- viability, T/C (second compound 0.316 µM, first compound 0.0316 µM): 110%
- viability, T/C (second compound 0.316 µM, first compound 0.1 µM): 115%
- viability, T/C (second compound 0.316 µM, first compound 0.316 µM): 114%
- viability, T/C (second compound 0.316 µM, first compound 1 µM): 104%
- viability, T/C (second compound 0.316 µM, first compound 3.16 µM): 98.9%
- viability, T/C (second compound 0.316 µM, first compound 10 µM): 89.7%
- viability, T/C (second compound 1 µM, first compound 0.0316 µM): 106%
- viability, T/C (second compound 1 µM, first compound 0.1 µM): 113%
- viability, T/C (second compound 1 µM, first compound 0.316 µM): 121%
- viability, T/C (second compound 1 µM, first compound 1 µM): 108%
- viability, T/C (second compound 1 µM, first compound 3.16 µM): 110%
- viability, T/C (second compound 1 µM, first compound 10 µM): 94.7%
- viability, T/C (second compound 3.16 µM, first compound 0.0316 µM): 122%
- viability, T/C (second compound 3.16 µM, first compound 0.1 µM): 124%
- viability, T/C (second compound 3.16 µM, first compound 0.316 µM): 126%
- viability, T/C (second compound 3.16 µM, first compound 1 µM): 105%
- viability, T/C (second compound 3.16 µM, first compound 3.16 µM): 106%
- viability, T/C (second compound 3.16 µM, first compound 10 µM): 88.5%
- viability, T/C (second compound 10 µM, first compound 0.0316 µM): 96.2%
- viability, T/C (second compound 10 µM, first compound 0.1 µM): 107%
- viability, T/C (second compound 10 µM, first compound 0.316 µM): 112%
- viability, T/C (second compound 10 µM, first compound 1 µM): 101%
- viability, T/C (second compound 10 µM, first compound 3.16 µM): 99.9%
- viability, T/C (second compound 10 µM, first compound 10 µM): 86.9%
